Test results: PubChem BioAssay AID2060893 (Molecular Pharmacology Branch, DTP, NCI, 2025)

System: K86415-001-R-J1-PDC complex spheroids, viability
Assay: Anticancer human tumor K86415-001-R-J1-PDC patient-derived lung adenocarcinoma cell line growth inhibition [RAS]
Details: for IC50: curve of first compound; for viability, T/C: stronger effect = lower value
In short: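 Tumour cells grown as complex spheroids with HUVEC endothelial cells and mesenchymal stem cells, treated with RAS pathway inhibitor combinations. Each agent spans half-log steps from near clinical Cmax, or 10 microM where Cmax is unknown.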
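Further: spheroids exposed to agents for seven days before readout.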

Nc1ccn(C2OC(CO)C(O)C2(F)F)c(=O)n1 (centres undefined) + C#Cc1c(F)ccc2cc(O)cc(-c3ncc4c(N5CC6CCC(C5)N6)nc(OCC56CCCN5CC(F)C6)nc4c3F)c12
IC50 (second compound 0.0316 µM): 83.3 nM
IC50 (second compound 0.1 µM): 93 nM
IC50 (second compound 0.316 µM): 70 nM
IC50 (second compound 1 µM): 45.5 nM
IC50 (second compound 3.16 µM): < 3.16 nM
IC50 (second compound 10 µM): < 3.16 nM
viability, T/C (second compound 0.0316 µM, first compound 0.00316 µM): 92.8%
viability, T/C (second compound 0.0316 µM, first compound 0.01 µM): 95%
viability, T/C (second compound 0.0316 µM, first compound 0.0316 µM): 70%
viability, T/C (second compound 0.0316 µM, first compound 0.1 µM): 48.2%
viability, T/C (second compound 0.0316 µM, first compound 0.316 µM): 24.9%
viability, T/C (second compound 0.0316 µM, first compound 1 µM): 21.6%
viability, T/C (second compound 0.1 µM, first compound 0.00316 µM): 92.6%
viability, T/C (second compound 0.1 µM, first compound 0.01 µM): 96.6%
viability, T/C (second compound 0.1 µM, first compound 0.0316 µM): 70.8%
viability, T/C (second compound 0.1 µM, first compound 0.1 µM): 50.7%
viability, T/C (second compound 0.1 µM, first compound 0.316 µM): 26.6%
viability, T/C (second compound 0.1 µM, first compound 1 µM): 19.6%
viability, T/C (second compound 0.316 µM, first compound 0.00316 µM): 90%
viability, T/C (second compound 0.316 µM, first compound 0.01 µM): 83.3%
viability, T/C (second compound 0.316 µM, first compound 0.0316 µM): 60.3%
viability, T/C (second compound 0.316 µM, first compound 0.1 µM): 48.1%
viability, T/C (second compound 0.316 µM, first compound 0.316 µM): 23.8%
viability, T/C (second compound 0.316 µM, first compound 1 µM): 19.5%
viability, T/C (second compound 1 µM, first compound 0.00316 µM): 79.1%
viability, T/C (second compound 1 µM, first compound 0.01 µM): 69.5%
viability, T/C (second compound 1 µM, first compound 0.0316 µM): 54%
viability, T/C (second compound 1 µM, first compound 0.1 µM): 40.9%
viability, T/C (second compound 1 µM, first compound 0.316 µM): 22.7%
viability, T/C (second compound 1 µM, first compound 1 µM): 15.7%
viability, T/C (second compound 3.16 µM, first compound 0.00316 µM): 41.3%
viability, T/C (second compound 3.16 µM, first compound 0.01 µM): 35.4%
viability, T/C (second compound 3.16 µM, first compound 0.0316 µM): 29.7%
viability, T/C (second compound 3.16 µM, first compound 0.1 µM): 28.9%
viability, T/C (second compound 3.16 µM, first compound 0.316 µM): 23.6%
viability, T/C (second compound 3.16 µM, first compound 1 µM): 21.2%
viability, T/C (second compound 10 µM, first compound 0.00316 µM): 17.4%
viability, T/C (second compound 10 µM, first compound 0.01 µM): 17%
viability, T/C (second compound 10 µM, first compound 0.0316 µM): 16.8%
viability, T/C (second compound 10 µM, first compound 0.1 µM): 13.6%
viability, T/C (second compound 10 µM, first compound 0.316 µM): 15.5%
viability, T/C (second compound 10 µM, first compound 1 µM): 14.5%

CCc1c2c(nc3ccc(O)cc13)-c1cc3c(c(=O)n1C2)COC(=O)[C@]3(O)CC + CCn1c(-c2cc(N3CCN(C)CC3)cnc2C(C)OC)c2c3cc(ccc31)-c1csc(n1)CC(NC(=O)C1CC1C)C(=O)N1CCCC(N1)C(=O)OCC(C)(C)C2
IC50 (second compound 0.000949 µM): < 0.949 nM
IC50 (second compound 0.003 µM): < 0.949 nM
IC50 (second compound 0.00949 µM): < 0.949 nM
IC50 (second compound 0.03 µM): < 0.949 nM
IC50 (second compound 0.0949 µM): < 0.949 nM
IC50 (second compound 0.3 µM): < 0.949 nM
viability, T/C (second compound 0.000949 µM, first compound 0.000949 µM): 43.2%
viability, T/C (second compound 0.000949 µM, first compound 0.003 µM): 23.9%
viability, T/C (second compound 0.000949 µM, first compound 0.00949 µM): 12.9%
viability, T/C (second compound 0.000949 µM, first compound 0.03 µM): 16.1%
viability, T/C (second compound 0.000949 µM, first compound 0.0949 µM): 11.6%
viability, T/C (second compound 0.000949 µM, first compound 0.3 µM): 4.09%
viability, T/C (second compound 0.003 µM, first compound 0.000949 µM): 22%
viability, T/C (second compound 0.003 µM, first compound 0.003 µM): 13.5%
viability, T/C (second compound 0.003 µM, first compound 0.00949 µM): 12.4%
viability, T/C (second compound 0.003 µM, first compound 0.03 µM): 13.3%
viability, T/C (second compound 0.003 µM, first compound 0.0949 µM): 10.2%
viability, T/C (second compound 0.003 µM, first compound 0.3 µM): 3.14%
viability, T/C (second compound 0.00949 µM, first compound 0.000949 µM): 9.02%
viability, T/C (second compound 0.00949 µM, first compound 0.003 µM): 7.98%
viability, T/C (second compound 0.00949 µM, first compound 0.00949 µM): 8.68%
viability, T/C (second compound 0.00949 µM, first compound 0.03 µM): 8.25%
viability, T/C (second compound 0.00949 µM, first compound 0.0949 µM): 5.09%
viability, T/C (second compound 0.00949 µM, first compound 0.3 µM): 2.46%
viability, T/C (second compound 0.03 µM, first compound 0.000949 µM): 5.24%
viability, T/C (second compound 0.03 µM, first compound 0.003 µM): 5.47%
viability, T/C (second compound 0.03 µM, first compound 0.00949 µM): 3.66%
viability, T/C (second compound 0.03 µM, first compound 0.03 µM): 3.44%
viability, T/C (second compound 0.03 µM, first compound 0.0949 µM): 2.88%
viability, T/C (second compound 0.03 µM, first compound 0.3 µM): 1.87%
viability, T/C (second compound 0.0949 µM, first compound 0.000949 µM): 3.46%
viability, T/C (second compound 0.0949 µM, first compound 0.003 µM): 3.37%
viability, T/C (second compound 0.0949 µM, first compound 0.00949 µM): 2.84%
viability, T/C (second compound 0.0949 µM, first compound 0.03 µM): 2.41%
viability, T/C (second compound 0.0949 µM, first compound 0.0949 µM): 1.76%
viability, T/C (second compound 0.0949 µM, first compound 0.3 µM): 0.94%
viability, T/C (second compound 0.3 µM, first compound 0.000949 µM): 2.47%
viability, T/C (second compound 0.3 µM, first compound 0.003 µM): 2.36%
viability, T/C (second compound 0.3 µM, first compound 0.00949 µM): 2.47%
viability, T/C (second compound 0.3 µM, first compound 0.03 µM): 2.01%
viability, T/C (second compound 0.3 µM, first compound 0.0949 µM): 2.07%
viability, T/C (second compound 0.3 µM, first compound 0.3 µM): 0.89%
